{"source": "patent US9718790B2", "about": "“Triazine derivative and pharmaceutical composition having an analgesic activity comprising the same” (SHIONOGI & CO., LTD., priority 2010, dated 2017)", "data": [{"molecular_target": "human P2X3 receptor (Homo sapiens (Human), UniProt P56373)", "sequence (P56373 whole entry)": "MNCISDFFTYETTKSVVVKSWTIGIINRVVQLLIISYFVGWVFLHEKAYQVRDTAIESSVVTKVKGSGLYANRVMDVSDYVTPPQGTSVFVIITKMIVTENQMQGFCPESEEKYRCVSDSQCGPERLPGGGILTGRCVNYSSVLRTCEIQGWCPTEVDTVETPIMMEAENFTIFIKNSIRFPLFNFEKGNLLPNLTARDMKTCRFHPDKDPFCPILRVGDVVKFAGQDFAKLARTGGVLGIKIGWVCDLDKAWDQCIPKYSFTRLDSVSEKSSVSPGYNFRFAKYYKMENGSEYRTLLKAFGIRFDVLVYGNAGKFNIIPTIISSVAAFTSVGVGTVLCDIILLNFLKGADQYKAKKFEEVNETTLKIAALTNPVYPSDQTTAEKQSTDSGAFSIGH", "assay": "Evaluation of human P2X3 receptor inhibitory activity (Fluo-3 calcium fluorescence, FDSS 3000, ATP stimulation);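 also: stimulus was 50 nM ATP with fluorescence followed for 3 min, and the response per well was peak post-ATP fluorescence divided by the reading at measurement start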", "type": "cell-based", "conditions": "C6BU-1 cells stably expressing human P2X3 receptor", "units": {"IC50": "nM"}, "values": [{"smiles": "COC(=O)[C@@H](C)Cn1c(=O)[nH]/c(=N\\c2ccc(OC(C)C)cc2)n(Cc2ccc(C)cc2)c1=O", "note": "[Compound I-0606]", "IC50": 21}, {"smiles": "CCOC(=O)c1cnc(Oc2ccc(/N=c3\\[nH]c(=O)n(CC)c(=O)n3Cc3ccc(Cl)cc3)cc2)s1", "note": "[Compound I-2148]", "IC50": 2}, {"smiles": "COC(=O)[C@@H](C)Cn1c(=O)[nH]/c(=N\\c2ccc(CCC3CC3)cc2)n(Cc2ccc(C)cc2)c1=O", "note": "[Compound I-1202]", "IC50": 93}, {"smiles": "COC(=O)C(C)(C)n1c(=O)[nH]/c(=N\\c2ccc(O)c(Cl)c2)n(Cc2ccc(Cl)cc2)c1=O", "note": "[Compound I-0676]", "IC50": 30}, {"smiles": "Cc1[nH]c2ccc(/N=c3\\[nH]c(=O)n(CCO)c(=O)n3Cc3ccc(Cl)cc3)cc2c1C", "note": "[Compound I-2042]", "IC50": 23}, {"smiles": "COc1cc(/N=c2\\[nH]c(=O)n(CC(C)(C)C(=O)O)c(=O)n2Cc2ccc(Cl)cc2)ccc1OC(C)C", "note": "[Compound I-1265]", "IC50": 22}, {"smiles": "CCOC(=O)CCn1c(=O)[nH]/c(=N\\c2ccc(OC(C)C)c(OC)c2)n(Cc2ccc(C)cc2)c1=O", "note": "[Compound I-1246]", "IC50": 6}, {"smiles": "CCCOc1ccc(/N=c2\\[nH]c(=O)n(C[C@H](C)C(=O)O)c(=O)n2Cc2ccc(Cl)cc2)cc1", "note": "[Compound I-0623]", "IC50": 20}, {"smiles": "COC(=O)[C@H](C)[C@H](C)n1c(=O)[nH]/c(=N\\c2ccc(OC(C)C)c(C)c2)n(Cc2ccc(Cl)cc2)c1=O", "note": "[Compound I-0809]", "IC50": 34}, {"smiles": "Cc1ccc(Cn2c(=O)n([C@@H](C)[C@@H](C)C(=O)O)c(=O)[nH]/c2=N\\c2ccc(OCC(C)C)cc2)cc1", "note": "[Compound I-1387]", "IC50": 44}, {"smiles": "C=Cc1cc(/N=c2\\[nH]c(=O)n(CCC(=O)O)c(=O)n2Cc2ccc(C)cc2)ccc1OC(C)C", "note": "[Compound I-1192]", "IC50": 20}, {"smiles": "Cc1ccc(Cn2c(=O)n(CCC(=O)O)c(=O)[nH]/c2=N\\c2ccc3[nH]c(=O)sc3c2)cc1", "note": "[Compound I-2133]", "IC50": 182}, {"smiles": "COC(=O)[C@@H](C)Cn1c(=O)[nH]/c(=N\\c2ccc(Cc3ccncc3)cc2)n(Cc2ccc(C)cc2)c1=O", "note": "[Compound I-1241]", "IC50": 108}]}, {"molecular_target": "human P2X3 receptor (Homo sapiens (Human), UniProt P56373)", "assay": "Evaluation of human P2X3 receptor inhibitory activity (Fluo-3 calcium fluorescence, FDSS 3000, ATP stimulation)", "type": "cell-based", "conditions": "C6BU-1 cells stably expressing human P2X3 receptor, Fluo-3 fluorescence, FDSS 3000", "units": {"IC50": "nM"}, "values": [{"smiles": "C[C@@H](C(=O)O)[C@H](C)n1c(=O)[nH]/c(=N\\c2ccc3c(c2)C(=O)CC3)n(Cc2ccc(Cl)cc2)c1=O", "note": "[Compound I-1831]", "IC50": 739}, {"smiles": "CCc1nc2ccc(/N=c3\\[nH]c(=O)n(CCCNC(C)=O)c(=O)n3Cc3ccc(Cl)cc3)cc2s1", "note": "[Compound I-1613]", "IC50": 6}, {"smiles": "Cc1cc(/N=c2\\[nH]c(=O)n(C3CN(C(=O)OC(C)(C)C)C3)c(=O)n2Cc2ccc(Cl)cc2)ccc1OC(C)C", "note": "[Compound I-1641]", "IC50": 20}, {"smiles": "COc1ccc(Oc2ccc(/N=c3\\[nH]c(=O)n(CC(N)=O)c(=O)n3Cc3ccc(Cl)cc3)cc2)cn1", "note": "[Compound I-1856]", "IC50": 8}, {"smiles": "Cc1ccc(Cn2c(=O)n(C[C@H](C)C(N)=O)c(=O)[nH]/c2=N\\c2ccc(CC(C)C)c(Cl)c2)cc1", "note": "[Compound I-1616]", "IC50": 7}, {"smiles": "CCc1oc2ccc(/N=c3\\[nH]c(=O)n(CCCC(=O)OC)c(=O)n3Cc3ccc(Cl)cc3)cc2c1C", "note": "[Compound I-1700]", "IC50": 12}, {"smiles": "C=Cc1ccc(Cn2c(=O)n(C[C@H](C)C(=O)O)c(=O)[nH]/c2=N\\c2ccc(OC(C)C)c(C)c2)cc1", "note": "[Compound I-0897, (S)-1-(4-vinylbenzyl)-6-(3-mehyl-4-isopropoxyphenylimino)-3-(2-hydroxycarbonylpropyl)-1,3,5-triazinane-2,4-dion]", "IC50": 25}]}, {"molecular_target": "human P2X3 receptor (Homo sapiens (Human), UniProt P56373)", "assay": "Evaluation of human P2X3 receptor inhibitory activity (Fluo-3 calcium fluorescence, FDSS 3000, ATP stimulation)", "type": "cell-based", "conditions": "human P2X3 receptor, Test Example 1", "units": {"IC50": "nM"}, "values": [{"smiles": "CCn1c(=O)[nH]/c(=N\\c2ccc(Oc3ccc(C(=O)O)c(F)c3)cc2)n(Cc2ccc(Cl)cc2)c1=O", "note": "[Compound I-2226]", "IC50": 12}, {"smiles": "O=c1[nH]/c(=N\\c2ccc(Oc3cccc(F)n3)cc2)n(Cc2ccc(Cl)cc2)c(=O)n1C[C@H](O)CO", "note": "[Compound I-2436]", "IC50": 4}, {"smiles": "Cc1nsc(Oc2ccc(/N=c3\\[nH]c(=O)n(C[C@H](O)CO)c(=O)n3Cc3ccc(F)cc3)cc2F)n1", "note": "[Compound I-2707]", "IC50": 7}, {"smiles": "COC(=O)c1ccc(Oc2ccc(/N=c3\\[nH]c(=O)n(C)c(=O)n3Cc3ccc(Cl)cc3)cc2)cn1", "note": "[Compound I-2402]", "IC50": 3}, {"smiles": "O=C(O)Cn1c(=O)[nH]/c(=N\\c2ccc(Oc3ncns3)cc2)n(Cc2ccc(Cl)cc2)c1=O", "note": "[Compound I-2659]", "IC50": 277}]}]}
